{"source": "paper PMC6718736", "about": "“Validation of in vitro methods for human cytochrome P450 enzyme induction: Outcome of a multi-laboratory study” (Toxicology in Vitro, 2019)", "key": {"CYP1A2 [1]": {"test_system": "CYP1A2", "assay": "CYP1A2 enzyme induction assay in cryopreserved HepaRG cells (phenacetin probe, LC/MS)", "assay_type": "in vitro ADME, human", "conditions": "for Prediction in vivo inducer: Cmax/F2 >0.5 criterion; for Assigned classification CYP1A2: HepaRG"}, "CYP2B6 [2]": {"test_system": "CYP2B6", "assay": "CYP2B6 enzyme induction assay in cryopreserved HepaRG cells (bupropion probe, LC/MS)", "assay_type": "in vitro ADME, human", "conditions": "for Prediction in vivo inducer: Cmax/F2 >0.5 criterion; for Assigned classification CYP2B6: HepaRG"}, "CYP3A4 [3]": {"test_system": "CYP3A4", "assay": "CYP3A4 enzyme induction assay in cryopreserved HepaRG cells (midazolam probe, LC/MS)", "assay_type": "in vitro ADME, human", "conditions": "for Assigned classification CYP3A4: HepaRG"}, "CYP1A2 [4]": {"test_system": "CYP1A2", "assay": "CYP1A2 enzyme induction assay in cryopreserved primary human hepatocytes (PHH);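 for Assigned classification CYP1A2: code 1 means positive inducer and 0 means non-inducer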", "assay_type": "in vitro ADME", "conditions": "for Prediction in vivo inducer: Cmax/F2 >0.5 criterion; for Assigned classification CYP1A2: PHH"}, "CYP2B6 [5]": {"test_system": "CYP2B6", "assay": "CYP2B6 enzyme induction assay in cryopreserved primary human hepatocytes (PHH);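 for Assigned classification CYP2B6: code 1 means positive inducer and 0 means non-inducer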", "assay_type": "in vitro ADME", "conditions": "for Assigned classification CYP2B6: PHH"}, "CYP1A2 [6]": {"test_system": "CYP1A2", "conditions": "cited from earlier work; for CYP1A2 induction in vivo: human, ref Andersson, 1996"}, "[7]": {"conditions": "cited from earlier work"}, "CYP": {"test_system": "CYP", "conditions": "CYP isoforms induced; ref Abadie et al. (2009), Richert et al. (2010), Preissner et al. (2010), Hoffmann et al. (2014); cited from earlier work"}, "CYP3A4 [8]": {"test_system": "CYP3A4", "conditions": "cited from earlier work"}, "CYP3A4 [9]": {"test_system": "CYP3A4", "assay": "CYP3A4 enzyme induction assay in cryopreserved primary human hepatocytes (PHH)", "conditions": "for Assigned classification CYP3A4: PHH"}, "[10]": {"conditions": "human in vivo, CYP named without remark = induced, ref references in the cell, Washington University database, Hoffmann et al. (2014), Pelkonen et al. (2008), Hukkanen et al. (2012)"}}, "note": "Read-outs that look alike come from different tables or passages of the source.", "data": [{"smiles": "COc1ccc2[nH]c([S+]([O-])Cc3ncc(C)c(OC)c3C)nc2c1", "note": "(stereo not shown) [Omeprazole]", "values": [{"measurement": "Prediction in vivo inducer", "setting": "CYP1A2 [1]; CYP1A2, HepaRG cells", "result": "No"}, {"measurement": "Prediction in vivo inducer", "setting": "CYP1A2 [1]; CYP1A2, HepaRG cells, listed as omeprazole", "result": "non-inducer"}, {"measurement": "F2", "setting": "CYP1A2 [1]; CYP1A2, HepaRG cells, in vitro concentration producing 2-fold induction", "result": 12.9, "unit": "µM"}, {"measurement": "Induction in vitro", "setting": "CYP1A2 [1]; CYP1A2, HepaRG cells, positive in one batch in each of the three laboratories", "result": "Yes"}, {"measurement": "Assigned classification CYP1A2", "setting": "CYP1A2 [1]; Lab 1, batch 20", "result": 1}, {"measurement": "Assigned classification CYP1A2", "setting": "CYP1A2 [1]; Lab 1, batch 35", "result": 1}, {"measurement": "Assigned classification CYP1A2", "setting": "CYP1A2 [1]; Lab 1, batch 36", "result": 1}, {"measurement": "Assigned classification CYP1A2", "setting": "CYP1A2 [1]; Lab 2, batch 20", "result": 1}, {"measurement": "Assigned classification CYP1A2", "setting": "CYP1A2 [1]; Lab 2, batch 35", "result": 1}, {"measurement": "Assigned classification CYP1A2", "setting": "CYP1A2 [1]; Lab 2, batch 36", "result": 1}, {"measurement": "Assigned classification CYP1A2", "setting": "CYP1A2 [1]; Lab 3, batch 20", "result": 1}, {"measurement": "Assigned classification CYP1A2", "setting": "CYP1A2 [1]; Lab 3, batch 35", "result": 1}, {"measurement": "Assigned classification CYP1A2", "setting": "CYP1A2 [1]; Lab 3, batch 36", "result": 1}, {"measurement": "Prediction in vivo inducer", "setting": "CYP2B6 [2]; CYP2B6, HepaRG cells", "result": "No"}, {"measurement": "Prediction in vivo inducer", "setting": "CYP2B6 [2]; CYP2B6, HepaRG cells, listed as omeprazole", "result": "predicted as a non-inducer"}, {"measurement": "Induction in vitro", "setting": "CYP2B6 [2]; CYP2B6, HepaRG cells, positive in one batch in each of the three laboratories", "result": "No"}, {"measurement": "Assigned classification CYP2B6", "setting": "CYP2B6 [2]; Lab 1, batch 20", "result": 0}, {"measurement": "Assigned classification CYP2B6", "setting": "CYP2B6 [2]; Lab 1, batch 35", "result": 0}, {"measurement": "Assigned classification CYP2B6", "setting": "CYP2B6 [2]; Lab 1, batch 36", "result": 0}, {"measurement": "Assigned classification CYP2B6", "setting": "CYP2B6 [2]; Lab 2, batch 20", "result": 0}, {"measurement": "Assigned classification CYP2B6", "setting": "CYP2B6 [2]; Lab 2, batch 35", "result": 0}, {"measurement": "Assigned classification CYP2B6", "setting": "CYP2B6 [2]; Lab 2, batch 36", "result": 1}, {"measurement": "Assigned classification CYP2B6", "setting": "CYP2B6 [2]; Lab 3, batch 20", "result": 1}, {"measurement": "Assigned classification CYP2B6", "setting": "CYP2B6 [2]; Lab 3, batch 35", "result": 0}, {"measurement": "Assigned classification CYP2B6", "setting": "CYP2B6 [2]; Lab 3, batch 36", "result": 0}, {"measurement": "Induction in vitro", "setting": "CYP3A4 [3]; CYP3A4, HepaRG cells", "result": "No"}, {"measurement": "Prediction in vivo inducer", "setting": "CYP3A4 [3]; CYP3A4, HepaRG cells", "result": "No"}, {"measurement": "Prediction in vivo inducer", "setting": "CYP3A4 [3]; CYP3A4, HepaRG cells, Cmax/F2 >0.5 criterion", "result": "non-inducer"}, {"measurement": "Assigned classification CYP3A4", "setting": "CYP3A4 [3]; Lab 1, batch 20", "result": 0}, {"measurement": "Assigned classification CYP3A4", "setting": "CYP3A4 [3]; Lab 1, batch 35", "result": 0}, {"measurement": "Assigned classification CYP3A4", "setting": "CYP3A4 [3]; Lab 1, batch 36", "result": 0}, {"measurement": "Assigned classification CYP3A4", "setting": "CYP3A4 [3]; Lab 2, batch 20", "result": 0}, {"measurement": "Assigned classification CYP3A4", "setting": "CYP3A4 [3]; Lab 2, batch 35", "result": 0}, {"measurement": "Assigned classification CYP3A4", "setting": "CYP3A4 [3]; Lab 2, batch 36", "result": 0}, {"measurement": "Assigned classification CYP3A4", "setting": "CYP3A4 [3]; Lab 3, batch 20", "result": 0}, {"measurement": "Assigned classification CYP3A4", "setting": "CYP3A4 [3]; Lab 3, batch 35", "result": 0}, {"measurement": "Assigned classification CYP3A4", "setting": "CYP3A4 [3]; Lab 3, batch 36", "result": 0}, {"measurement": "Prediction in vivo inducer", "setting": "CYP1A2 [4]; CYP1A2, PHH", "result": "No"}, {"measurement": "Prediction in vivo inducer", "setting": "CYP1A2 [4]; CYP1A2, PHH, listed as omeprazole", "result": "non-inducer"}, {"measurement": "F2", "setting": "CYP1A2 [4]; CYP1A2, PHH, in vitro concentration producing 2-fold induction", "result": "38.6 to 118", "unit": "µM"}, {"measurement": "Induction in vitro", "setting": "CYP1A2 [4]; CYP1A2, PHH, positive in one donor in each of the three laboratories", "result": "Yes"}, {"measurement": "Assigned classification CYP1A2", "setting": "CYP1A2 [4]; Lab 1, batch 0 6 A", "result": 1}, {"measurement": "Assigned classification CYP1A2", "setting": "CYP1A2 [4]; Lab 1, batch 4 0 8", "result": 1}, {"measurement": "Assigned classification CYP1A2", "setting": "CYP1A2 [4]; Lab 1, batch 8 0 8", "result": 1}, {"measurement": "Assigned classification CYP1A2", "setting": "CYP1A2 [4]; Lab 2, batch 0 6 A", "result": 1}, {"measurement": "Assigned classification CYP1A2", "setting": "CYP1A2 [4]; Lab 2, batch 4 0 8", "result": 1}, {"measurement": "Assigned classification CYP1A2", "setting": "CYP1A2 [4]; Lab 2, batch 8 0 8", "result": 1}, {"measurement": "Assigned classification CYP1A2", "setting": "CYP1A2 [4]; Lab 3, batch 0 6 A", "result": 1}, {"measurement": "Assigned classification CYP1A2", "setting": "CYP1A2 [4]; Lab 3, batch 4 0 8", "result": 1}, {"measurement": "Assigned classification CYP1A2", "setting": "CYP1A2 [4]; Lab 3, batch 8 0 8", "result": 1}, {"measurement": "F2", "setting": "CYP2B6 [5]; CYP2B6, PHH", "result": "38.6 to 116", "unit": "µM"}, {"measurement": "Induction in vitro", "setting": "CYP2B6 [5]; CYP2B6, PHH", "result": "Yes"}, {"measurement": "Prediction in vivo inducer", "setting": "CYP2B6 [5]; CYP2B6, PHH", "result": "No"}, {"measurement": "Prediction in vivo inducer", "setting": "CYP2B6 [5]; CYP2B6, PHH, Cmax/F2 >0.5 criterion", "result": "non-inducer"}, {"measurement": "Assigned classification CYP2B6", "setting": "CYP2B6 [5]; Lab 1, batch 0 6 A", "result": 1}, {"measurement": "Assigned classification CYP2B6", "setting": "CYP2B6 [5]; Lab 1, batch 4 0 8", "result": 1}, {"measurement": "Assigned classification CYP2B6", "setting": "CYP2B6 [5]; Lab 1, batch 8 0 8", "result": 0}, {"measurement": "Assigned classification CYP2B6", "setting": "CYP2B6 [5]; Lab 2, batch 0 6 A", "result": 1}, {"measurement": "Assigned classification CYP2B6", "setting": "CYP2B6 [5]; Lab 2, batch 4 0 8", "result": 0}, {"measurement": "Assigned classification CYP2B6", "setting": "CYP2B6 [5]; Lab 2, batch 8 0 8", "result": 0}, {"measurement": "Assigned classification CYP2B6", "setting": "CYP2B6 [5]; Lab 3, batch 0 6 A", "result": 1}, {"measurement": "Assigned classification CYP2B6", "setting": "CYP2B6 [5]; Lab 3, batch 4 0 8", "result": 1}, {"measurement": "Assigned classification CYP2B6", "setting": "CYP2B6 [5]; Lab 3, batch 8 0 8", "result": 1}, {"measurement": "Induction in vivo", "setting": "CYP1A2 [6]; CYP1A2, human, ref Table 1", "result": "No"}, {"measurement": "CYP induction in vivo literature reference: CYP1A2", "setting": "CYP1A2 [6]; [10]", "result": "NOT induced at clinically used doses"}, {"measurement": "CYP1A2 induction in vivo", "setting": "CYP1A2 [6]; 120 mg doses or poor metabolizers (40 mg dose)", "result": "weak inducer"}, {"measurement": "CYP1A2 induction in vivo", "setting": "CYP1A2 [6]; normal doses (20-40 mg)", "result": "not a CYP1A2 inducer"}, {"measurement": "Cmax", "setting": "[7]; human in vivo plasma concentration, normal dose", "result": "680 to 3500", "unit": "nM"}, {"measurement": "Cmax", "setting": "[7]; human in vivo, normal dose (Table 10)", "result": "680 to 3500", "unit": "nM"}, {"measurement": "CYP induction in vitro (human hepatocytes)", "setting": "CYP", "result": "CYP1A2, CYP2B6, CYP3A4"}, {"measurement": "Induction in vivo", "setting": "CYP3A4 [8]; CYP3A4, human in vivo reference classification (Table 11)", "result": "No"}, {"measurement": "CYP induction in vivo literature reference: CYP3A4", "setting": "CYP3A4 [8]; [10]", "result": "NOT induced"}, {"measurement": "F2", "setting": "CYP3A4 [9]; CYP3A4, PHH", "result": "38.7 to 117", "unit": "µM"}, {"measurement": "Induction in vitro", "setting": "CYP3A4 [9]; CYP3A4, PHH", "result": "Yes"}, {"measurement": "Prediction in vivo inducer", "setting": "CYP3A4 [9]; CYP3A4, PHH", "result": "No"}, {"measurement": "Prediction in vivo inducer", "setting": "CYP3A4 [9]; CYP3A4, PHH, Cmax/F2 >0.5 criterion", "result": "non-inducer"}, {"measurement": "Assigned classification CYP3A4", "setting": "CYP3A4 [9]; Lab 1, batch 0 6 A", "result": 1}, {"measurement": "Assigned classification CYP3A4", "setting": "CYP3A4 [9]; Lab 1, batch 4 0 8", "result": 0}, {"measurement": "Assigned classification CYP3A4", "setting": "CYP3A4 [9]; Lab 1, batch 8 0 8", "result": 1}, {"measurement": "Assigned classification CYP3A4", "setting": "CYP3A4 [9]; Lab 2, batch 0 6 A", "result": 1}, {"measurement": "Assigned classification CYP3A4", "setting": "CYP3A4 [9]; Lab 2, batch 4 0 8", "result": 0}, {"measurement": "Assigned classification CYP3A4", "setting": "CYP3A4 [9]; Lab 2, batch 8 0 8", "result": 0}, {"measurement": "Assigned classification CYP3A4", "setting": "CYP3A4 [9]; Lab 3, batch 0 6 A", "result": 1}, {"measurement": "Assigned classification CYP3A4", "setting": "CYP3A4 [9]; Lab 3, batch 4 0 8", "result": 0}, {"measurement": "Assigned classification CYP3A4", "setting": "CYP3A4 [9]; Lab 3, batch 8 0 8", "result": 1}]}]}
